Laboratory results taken from patent publication US9458203B2, “Integrin-blocking polypeptides and uses thereof” (priority 2011, dated 2016).
Several values for one entry are separate records, joined by “and”; a condition that tells them apart may be missing. Identical values can stand only once. Like-named read-outs stand apart in the source and are kept apart here.

Assays:
[1] = system: human umbilical vein endothelial cells (HUVECs); assay: inhibition of capillary formation of HUVECs (matrigel); type: cell-based; conditions: 10 μg/ml; for inhibition at 10 µg/mL: Homo sapiens, HUVEC, read-out: inhibition rate (%) of capillary formation
Method: Thawing 10 mg/mL matrigel (BD Company, USA) stocked at −20° C. overnight at 4° C., diluting it with HUVEC culture medium at the ratio of 1:1; smearing 30 μl of the solution on a 96-well plate (Greiner Company, USA), placing the plate at a 37 incubator for 1 h of aggregation. Digesting the HUVECs with 0.2% ethylene diamine tetraacetic acid (EDTA) when they reached the logarithmic phase; collecting the cells and washing them with PBS buffer twice, and then resuspending the cells with blank HUVEC culture medium. Counting the cells under a microscope, adjusting the cell concentration to 1×10^5 cells/ml. Preparing the testing solution for all groups, and diluting with blank HUVEC culture medium to 100 μl. Seeding the cells into the 96-well plate, 100 μl for each well, adding also the testing solution into each well and incubating the cells in 5% CO2 at 37° C. After 6 h, 12 h, 24 h, 36 h, 48 h, 60 h of incubation, randomly choosing 5 FOVs for each dose, photographing and counting the cells; calculating the number of capillary structures at different doses and analyzing the inhibition effect of polypeptide II and polypeptide III on HUVECs' differentiating into capillaries. The inhibition rate of capillary formation was calculated in accordance with the following formula: […]
wherein Ntest is the number of capillary structures in the test groups while Ncontrol is the number of capillary structures in the negative control group.

melanoma B16F10 = assay: transplanted melanoma B16F10 in C57BL/6 black mice
Method: Hypodermically injecting polypeptides and other drugs into the left axillary region of mice from the experimental groups respectively while administering only equal quantity of physiological saline to the mice from the negative control group. The total medication period was 14 days, during which cyclophosphamide was administered once every other day, taxol once every three days, low-dose polypeptide twice a day and all other drugs once a day.

[2] = system: human liver cancer SMMC-7721
Method: (§1) Taking a certain amount of vigorously growing tumor tissue, grinding the tumor tissue under sterile conditions and preparing cell suspension at the concentration of 1×10^7 cells/ml; then hypodermicaly inoculating 0.1 ml of the cell suspension into the right axillary region of nude mice. Keeping measuring the diameter of the transplanted tumor with a vernier caliper, and randomly dividing the mice into groups when the volume of the tumor reached 100-200 mm^3. Observing the dynamic effect of integrin-blocking polypeptides on inhibiting the growth of the tumor by means of documenting the change of tumor diameters. Measuring the tumor diameter once every other day and recording the body weight of mice simultaneously. Intravenously injecting polypeptides to mice from test groups while administering equal quantity of physiological saline to mice from the negative control group. The total medication period was 14 days. Avastin was adopted to set up a positive control group; it was administered through the tail vein once every three days while all other drugs were administered through the tail vein once a day. Leaving mice for a one-week rest after 14 days' medication, then (21 days after medication) killing the mice, surgically dissecting the tumors and measuring the weight of tumors. The tumor volume (TV) was calculated in accordance with the following formula: TV=½×a×b^2
(§2) Taxol used in the positive control group was administered once every 3 days through tail vein injection, while drugs of all other groups were administered on daily basis through tail vein injection.

[3] = system: human endometrial cancer HHUA
Method: as §1, §2

[4] = system: human rectal cancer Colo 320
Method: as §1, §2

[5] = 10 mg/kg/time, tail vein once every 3 days
[6] = positive control, tail vein once every 3 days
[7] = taxol 10 mg/kg/time, once every 3 days, tail vein injection

Method for human brain tumor SF763: as §1, §2
Method for human lung cancer H460: as §1, §2

For `CC(=O)O[C@H]1C(=O)[C@@]2(C)[C@H]([C@H](OC(=O)c3ccccc3)[C@]3(O)C[C@H](OC(=O)[C@H](O)[C@@H](NC(=O)c4ccccc4)c4ccccc4)C(C)=C1C3(C)C)[C@]1(OC(C)=O)CO[C@@H]1C[C@@H]2O` [taxol, reference compound], the “number of capillary structures (mean ± SD)” value ([1]; 6 h) was 0.0 ± 0.0, the “number of capillary structures (mean ± SD)” value ([1]; 12 h) was 0.0 ± 0.0 and the inhibition at 10 µg/mL ([1]; 6 h) was 100%. The inhibition at 10 µg/mL ([1]; 12 h) was 100%, the tumor weight (melanoma B16F10; 10 mg/kg/time once every three days, hypodermic, 14 days) was 0.77 ± 0.62 g and 0.98 ± 0.30 g and the “body weight of animals, in words” value (melanoma B16F10; mouse, in vivo) was “greatly reduced the body weight”. The “toxic and side effects, in words” value (melanoma B16F10; mouse, in vivo) was “severer toxic and side effects”, the tumor inhibition rate (human lung cancer H460; [5]) was 68.21% and the tumor weight (human lung cancer H460; [5]) was 0.28 ± 0.07 g. The “body weight of animals, in words” value (human lung cancer H460; mouse, in vivo) was “greatly reduced the body weight”, the “toxic and side effects, in words” value (human lung cancer H460; mouse, in vivo) was “more apparent toxic and side effects” and the tumor inhibition rate [2, 5] was 78.10%. The tumor weight [2, 5] was 0.28 ± 0.05 g, the “body weight of animals, in words” value ([2]; mouse, in vivo) was “greatly reduced the body weight” and the “toxic and side effects, in words” value ([2]; mouse, in vivo) was “more apparent toxic and side effects”. For the same compound, the tumor weight [3, 5] was 0.23 ± 0.07 g, the “body weight of animals, in words” value ([3]; mouse, in vivo) was “greatly reduced the body weight” and the “toxic and side effects, in words” value ([3]; mouse, in vivo) was “more apparent toxic and side effects”. The “body weight of animals, in words” value (human brain tumor SF763; mouse, in vivo) was “greatly reduced the body weight”, the “toxic and side effects, in words” value (human brain tumor SF763; mouse, in vivo) was “more apparent toxic and side effects” and the “inhibition rate on tumor” value (human brain tumor SF763; [6]) was 76.29%. The tumor inhibition rate (human brain tumor SF763; [7]) was 76.29%, the tumor weight (human brain tumor SF763; [7]) was 0.28 ± 0.07 g and the “body weight of animals, in words” value ([4]; mouse, in vivo) was “greatly reduced the body weight”. For the same compound, the “toxic and side effects, in words” value ([4]; mouse, in vivo) was “more apparent toxic and side effects”, the “inhibition rate on tumor” value [4, 6] was 76.62% and the tumor inhibition rate [4, 7] was 76.62%. The tumor weight [4, 7] was 0.29 ± 0.07 g.
